In US20250388589A1, “TRICYCLIC HETEROCYCLIC DERIVATIVES, COMPOSITIONS AND USES THEREOF” (Danatlas Pharmaceuticals Co., Ltd., priority 2022, published 2025):
Where two headings read alike, the source gives them in different places.

Assays:
Kuramochi cell line = experiment: Cell Viability Assay (Cell Titer-Glo, 7 days); type: cell-based; details: Kuramochi cells, 7 days incubation, read-out: PARG Cell viability (IC50)
In short: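 Kuramochi cells in RPMI with 10% FBS, seeded at 400 cells/well, were treated with a 9-point 3-fold dilution series in duplicate for 7 days at 37 °C, 5% CO2. Viability by CellTiter-Glo luminescence, normalised to DMSO and medium-only controls; IC50 from 4-parameter Hill fit.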

[1] = target: hPARG (C-terminal His6-tag) (Homo sapiens (Human), UniProt Q86W56); experiment: PARG Enzymatic Activity Assay (HTRF); type: biochemical; details: hPARG 65 pM final, biotinylated-NAD ribosylated PARP1 8 nM final
Sequence of hPARG (C-terminal His6-tag) (Q86W56 whole entry): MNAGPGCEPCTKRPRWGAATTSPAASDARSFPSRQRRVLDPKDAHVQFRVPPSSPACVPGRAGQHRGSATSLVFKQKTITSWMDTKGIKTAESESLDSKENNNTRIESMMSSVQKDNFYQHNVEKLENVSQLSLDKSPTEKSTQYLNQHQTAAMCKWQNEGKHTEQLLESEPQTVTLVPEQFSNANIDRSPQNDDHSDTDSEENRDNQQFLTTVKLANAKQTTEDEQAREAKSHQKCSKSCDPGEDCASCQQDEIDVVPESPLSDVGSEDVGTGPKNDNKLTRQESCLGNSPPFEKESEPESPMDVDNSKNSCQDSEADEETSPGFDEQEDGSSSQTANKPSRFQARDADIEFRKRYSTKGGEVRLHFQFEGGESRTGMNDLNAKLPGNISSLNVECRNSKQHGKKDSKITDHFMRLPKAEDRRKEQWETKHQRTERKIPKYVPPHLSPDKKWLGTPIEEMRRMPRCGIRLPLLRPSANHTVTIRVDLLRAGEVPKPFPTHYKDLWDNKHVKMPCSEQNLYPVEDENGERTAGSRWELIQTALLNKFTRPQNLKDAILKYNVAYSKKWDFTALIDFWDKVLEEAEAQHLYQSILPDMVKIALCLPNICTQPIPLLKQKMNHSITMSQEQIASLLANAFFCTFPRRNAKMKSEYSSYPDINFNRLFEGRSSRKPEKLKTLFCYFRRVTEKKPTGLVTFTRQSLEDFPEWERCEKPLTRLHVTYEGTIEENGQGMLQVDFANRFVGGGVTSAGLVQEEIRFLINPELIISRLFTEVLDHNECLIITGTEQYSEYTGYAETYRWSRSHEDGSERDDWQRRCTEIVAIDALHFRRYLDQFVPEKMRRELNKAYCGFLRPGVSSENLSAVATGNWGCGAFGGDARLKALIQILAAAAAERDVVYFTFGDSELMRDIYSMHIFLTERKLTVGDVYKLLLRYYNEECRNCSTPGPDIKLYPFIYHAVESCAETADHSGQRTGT
In short: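 E. coli-expressed enzyme (65 pM final) preincubated 60 min RT with compounds (10-point 4-fold dilution, duplicate) in 50 mM Tris pH 7.4, 3 mM EDTA, 1 mM DTT, 50 mM KCl, 0.01% Tween 20. Biotinylated-NAD ribosylated PARP1 substrate (8 nM final) reacted 10 min RT; Eu-streptavidin/anti-6HIS-XL665 HTRF read 665/620 nm after 60 min. IC50 from 4-parameter Hill fit.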

Row | Structure (SMILES) | IC50 (Kuramochi cell line; 168 h) [nM] | IC50 [1] [nM] | IC50 (Kuramochi cell line) [nM]
1 | C[C@H](N)C(=O)N1CCC(c2ncnc3c2c2ccc(S(=O)(=O)NC4(C#N)CC4)cc2n3-c2nnc(C(F)F)s2)CC1 [Example 128, 4-(1-(L-alanyl)piperidin-4-yl)-N-(1-cyanocyclopropyl)-9-(5-(difluoromethyl)-1,3,4-thiadiazol-2-yl)-9H-pyrimido[4,5-b]indole-7-sulfonamide] | 100 to 1000 | < 100 | –
2 | N#CC1(NS(=O)(=O)c2ccc3c4c(C5CCN(C(=O)N6CC[C@@H](O)C6)CC5)ncnc4n(-c4nnc(C(F)F)s4)c3c2)CC1 [Example 129, (R)—N-(1-Cyanocyclopropyl)-9-(5-(difluoromethyl)-1,3,4-thiadiazol-2-yl)-4-(1-(3-hydroxypyrrolidine-1-carbonyl)piperidin-4-yl)-9H-pyrimido[4,5-b]indole-7-sulfonamide] | 100 to 1000 | < 100 | –
3 | N#CC1(NS(=O)(=O)c2ccc3c4c(C5CCN(C(=O)N6CC[C@H](O)C6)CC5)ncnc4n(-c4nnc(C(F)F)s4)c3c2)CC1 [Example 130, (S)—N-(1-Cyanocyclopropyl)-9-(5-(difluoromethyl)-1,3,4-thiadiazol-2-yl)-4-(1-(3-hydroxypyrrolidine-1-carbonyl)piperidin-4-yl)-9H-pyrimido[4,5-b]indole-7-sulfonamide] | 100 to 1000 | < 100 | –
4 | CC1(NS(=O)(=O)c2ccc3c4c(C5CCN(C(=O)N6CC[C@H](O)C6)CC5)ncnc4n(-c4nnc(C(F)F)s4)c3c2)CC1 [Example 131, (S)-9-(5-(Difluoromethyl)-1,3,4-thiadiazol-2-yl)-4-(1-(3-hydroxypyrrolidine-1-carbonyl)piperidin-4-yl)-N-(1-methylcyclopropyl)-9H-pyrimido[4,5-b]indole-7-sulfonamide] | < 100 | < 100 | –
5 | CC1(NS(=O)(=O)c2ccc3c4c(C5CCN(C(=O)N6CC[C@@H](O)C6)CC5)ncnc4n(-c4nnc(C(F)F)s4)c3c2)CC1 [Example 132, (R)-9-(5-(Difluoromethyl)-1,3,4-thiadiazol-2-yl)-4-(1-(3-hydroxypyrrolidine-1-carbonyl)piperidin-4-yl)-N-(1-methylcyclopropyl)-9H-pyrimido[4,5-b]indole-7-sulfonamide] | < 100 | < 100 | –
6 | CC1(NS(=O)(=O)c2ccc3c4c(C5CCN(C(=O)N6CCOCC6)CC5)ncnc4n(-c4nnc(C(F)F)s4)c3c2)CC1 [Example 133, 9-(5-(difluoromethyl)-1,3,4-thiadiazol-2-yl)-N-(1-methylcyclopropyl)-4-(1-(morpholine-4-carbonyl)piperidin-4-yl)-9H-pyrimido[4,5-b]indole-7-sulfonamide] | < 100 | < 100 | –
7 | CO[C@H]1CCN(C(=O)N2CCC(c3ncnc4c3c3ccc(S(=O)(=O)NC5(C#N)CC5)cc3n4-c3nnc(C(F)F)s3)CC2)C1 [Example 134, (S)—N-(1-Cyanocyclopropyl)-9-(5-(difluoromethyl)-1,3,4-thiadiazol-2-yl)-4-(1-(3-methoxypyrrolidine-1-carbonyl)piperidin-4-yl)-9H-pyrimido[4,5-b]indole-7-sulfonamide] | < 100 | < 100 | –
8 | CO[C@@H]1CCN(C(=O)N2CCC(c3ncnc4c3c3ccc(S(=O)(=O)NC5(C#N)CC5)cc3n4-c3nnc(C(F)F)s3)CC2)C1 [Example 135, (R)-N-(1-Cyanocyclo-propyl)-9-(5-(difluoromethyl)-1,3,4-thiadiazol-2-yl)-4-(1-(3-methoxypyrrolidine-1-carbonyl)piperidin-4-yl)-9H-pyrimido [4,5-b]indole-7-sulfonamide] | < 100 | < 100 | –
9 | CN(C)[C@H]1CCN(C(=O)N2CCC(c3ncnc4c3c3ccc(S(=O)(=O)NC5(C#N)CC5)cc3n4-c3nnc(C(F)F)s3)CC2)C1 [Example 136, (S)-N-(1-Cyanocyclo-propyl)-9-(5-(difluoromethyl)-1,3,4-thiadiazol-2-yl)-4-(1-(3-(dimethylamino)pyrrolidine-1-carbonyl)piperidin-4-yl)-9H-pyrimido [4,5-b]indole-7-sulfonamide] | < 100 | < 100 | –
10 | CN(C)[C@@H]1CCN(C(=O)N2CCC(c3ncnc4c3c3ccc(S(=O)(=O)NC5(C#N)CC5)cc3n4-c3nnc(C(F)F)s3)CC2)C1 [Example 137, (R)-N-(1-Cyanocyclo-propyl)-9-(5-(difluoromethyl)-1,3,4-thiadiazol-2-yl)-4-(1-(3-(dimethylamino)pyrrolidine-1-carbonyl)piperidin-4-yl)-9H-pyrimido[4,5-b] indole-7-sulfonamide] | 100 to 1000 | < 100 | –
11 | N#CC1(NS(=O)(=O)c2ccc3c4c(C5CCN(C(=O)N6CC(O)C6)CC5)ncnc4n(-c4nnc(C(F)F)s4)c3c2)CC1 [Example 138, N-(1-cyanocyclo-propyl)-9-(5-(difluoromethyl)-1,3,4-thiadiazol-2-yl)-4-(1-(3-hydroxy-azetidine-1-carbonyl)piperidin-4-yl)-9H-pyrimido [4,5-b]indole-7-sulfonamide] | 100 to 1000 | < 100 | –
12 | N#CC1(NS(=O)(=O)c2ccc3c4c(C5CCN(C(=O)N6CCCO6)CC5)ncnc4n(-c4nnc(C(F)F)s4)c3c2)CC1 [Example 139] | < 100 | < 100 | –
13 | N#CC1(NS(=O)(=O)c2ccc3c4c(C5CCN(C(=O)N6CCOCC6)CC5)ncnc4n(-c4nnc(C(F)F)s4)c3c2)CC1 [Example 140, N-(1-cyanocyclo-propyl)-9-(5-(difluoromethyl)-1,3,4-thiadiazol-2-yl)-4-(1-(morpholine-4-carbonyl)piperidin-4-yl)-9H-pyrimido [4,5-b]indole-7-sulfonamide] | < 100 | < 100 | –
14 | CN1CCN(C(=O)N2CCC(c3ncnc4c3c3ccc(S(=O)(=O)NC5(C#N)CC5)cc3n4-c3nnc(C(F)F)s3)CC2)CC1 [Example 141, N-(1-cyanocyclo-propyl)-9-(5-(difluoromethyl)-1,3,4-thiadiazol-2-yl)-4-(1-(4-methylpiperazine-1-carbonyl)piperidin-4-yl)-9H-pyrimido [4,5-b]indole-7-sulfonamide] | 100 to 1000 | < 100 | –
15 | CC(O)CN(C)C(=O)N1CCC(c2ncnc3c2c2ccc(S(=O)(=O)NC4(C#N)CC4)cc2n3-c2nnc(C(F)F)s2)CC1 (centres unmarked) [Example 142, 4-(7-(N-(1-cyanocyclo-propyl)sulfamoyl)-9-(5-(difluoromethyl)-1,3,4-thiadiazol-2-yl)-9H-pyrimido[4,5-b]indol-4-yl)-N-(2-hydroxypropyl)-N-methylpiperidine-1-carboxamide] | < 100 | < 100 | –
16 | CN(CCO)C(=O)N1CCC(c2ncnc3c2c2ccc(S(=O)(=O)NC4(C#N)CC4)cc2n3-c2nnc(C(F)F)s2)CC1 [Example 143, 4-(7-(N-(1-cyanocyclo-propyl)sulfamoyl)-9-(5-(difluoromethyl)-1,3,4-thiadiazol-2-yl)-9H-pyrimido[4,5-b]indol-4-yl)-N-(2-hydroxyethyl)-N-methylpiperidine-1-carboxamide] | 100 to 1000 | < 100 | –
17 | COCCN(C)C(=O)N1CCC(c2ncnc3c2c2ccc(S(=O)(=O)NC4(C#N)CC4)cc2n3-c2nnc(C(F)F)s2)CC1 [Example 144, 4-(7-(N-(1-cyanocyclo-propyl)sulfamoyl)-9-(5-(difluoromethyl)-1,3,4-thiadiazol-2-yl)-9H-pyrimido[4,5-b]indol-4-yl)-N-(2-methoxyethyl)-N-methylpiperidine-1-carboxamide] | < 100 | < 100 | –
18 | CON(C)C(=O)N1CCC(c2ncnc3c2c2ccc(S(=O)(=O)NC4(C#N)CC4)cc2n3-c2nnc(C(F)F)s2)CC1 [Example 145, 4-(7-(N-(1-Cyanocyclopropyl)sulfamoyl)-9-(5-(difluoromethyl)-1,3,4-thiadiazol-2-yl)-9H-pyrimido[4,5-b]indol-4-yl)-N-methoxy-N-methylpiperidine-1-carboxamide] | < 100 | < 100 | –
19 | CN1CCC(c2ncnc3c2c2ccc(S(=O)(=O)NC4(C#N)CC4)cc2n3-c2nnc(C(F)F)s2)CC1 [Example 146, N-(1-Cyanocyclopropyl)-9-(5-(difluoromethyl)-1,3,4-thiadiazol-2-yl)-4-(1-methylpiperidin-4-yl)-9H-pyrimido[4,5-b]indole-7-sulfonamide] | < 100 | < 100 | –
20 | CC(C)C(=O)N1CCC(c2ncnc3c2c2cc(F)c(S(=O)(=O)NC4(C)CC4)cc2n3-c2nnc(C(F)F)s2)CC1 [Example 148, 9-(5-(Difluoromethyl)-1,3,4-thiadiazol-2-yl)-6-fluoro-4-(1-isobutyrylpiperidin-4-yl)-N-(1-methylcyclopropyl)-9H-pyrimido[4,5-b]indole-7-sulfonamide] | < 100 | < 100 | –
21 | C[C@H]1CC(c2ncnc3c2c2cc(F)c(S(=O)(=O)NC4(C)CC4)cc2n3-c2nnc(C(F)F)s2)CCN1C(=O)N(C)C (stereo partly drawn) [Example 149, (2S)-4-(9-(5-(difluoromethyl)-1,3,4-thiadiazol-2-yl)-6-fluoro-7-(N-(1-methylcyclopropyl)sulfamoyl)-9H-pyrimido[4,5-b]indol-4-yl)-N,N,2-trimethylpiperidine-1-carboxamide] | – | < 100 | < 100
22 | C[C@H]1CC(c2ncnc3c2c2ccc(S(=O)(=O)NC4(C#N)CC4)cc2n3-c2nnc(C(F)F)s2)CCN1 (stereo partly drawn) [Example 150, N-(1-Cyanocyclopropyl)-9-(5-(difluoromethyl)-1,3,4-thiadiazol-2-yl)-4-((2S)-2-methylpiperidin-4-yl)-9H-pyrimido[4,5-b]indole-7-sulfonamide] | 100 to 1000 | < 100 | –
